{"source": "PubChem BioAssay AID2060350", "about": "(Molecular Pharmacology Branch, DTP, NCI, 2025)", "test_system": "PDC 521955-158-R6-J3 spheroids, viability", "assay": "Anticancer human tumor 521955-158-R6-J3-PDC patient-derived pancreatic carcinoma cell line growth inhibition [TAK]", "settings": "spheroids with HUVEC and MSC; for viability, T/C: stronger effect = lower value", "source_text": "Combinatorial screen of targeted agents with TAK-243 and ipatasertib in multi-cell type tumor spheroids\nA high-throughput screen of multi-cell type tumor spheroids was designed to identify active combinations of targeted small molecules and TAK-243 or ipatasertib. Complex spheroids include a stromal component modeled by human endothelial cells (HUVEC) and fibroblasts modeled by human mesenchymal stem cells (MSCs). The concentration ranges selected for each drug and investigational agent were based upon clinically achievable concentrations if the clinical Cmax of the agent was known.\nCompounds. The drugs and investigational agents: TAK-243 (785004), ipatasertib (767898), everolimus (733504), selumetinib (741078), bortezomib (756655), trametinib (758246), ixazomib (758254), vemurafenib (761431), dabrafenib (764134), sapanisertib (764658), alpelisib (765974), and copanlisib (816437), were obtained from the National Cancer Institute (NCI) Developmental Therapeutics Program Chemical Repository. The FDA-approved anticancer drug set is available from the NCI Developmental Therapeutics Program. […] The stock solutions were prepared in dimethyl sulfoxide (DMSO, Sigma-Aldrich, St. Louis, MO, cat. D2650) at 800-fold the tested concentration and stored at -70 degrees C prior to their use. All drugs and investigational agents were tested over a range starting from a high concentration at or near the clinical Cmax and decreasing in half-log increments. If the clinical Cmax for an agent had not been determined, the highest concentration tested was 10 microM.\nNCI60 Cell Culture. NCI60 cell lines were obtained from the NCI Developmental Therapeutics Program Tumor Repository. For each lot of cells, the Repository performed Applied Biosystems AmpFLSTR Identifiler testing with PCR amplification to confirm consistency with the published Identifier STR profile for each cell line. Cells were kept in continuous culture for no more than 20 passages. The optimal seeding densities for each of the cell lines at each time point assessed were determined prior to performing the concentration response studies. Briefly, the NCI60 human tumor lines were grown as monolayers in RPMI 1640 medium supplemented with 10% FBS and 2 mmol/L L-glutamine.\nAn additional 2 lines were from the NCI60 cell line panel including melanomas, MALME-3M and SK-MEL-2. Pooled donor human umbilical vein endothelial cells (HUVEC, Lonza, cat. CC-2519) and human mesenchymal stem cells (hMSC, Lonza, cat. PT-2501) were purchased from Lonza (Walkersville, MD).\nPDMR cell lines were grown in complete medium (DC medium): Dulbecco's modified Eagle's medium (DMEM)/F12 supplemented with 5% fetal bovine serum (FBS), 2 mM L-glutamine, 100 U/mL penicillin and 100 µg/ml streptomycin, 0.4 µg/ml hydrocortisone, 10 ng/ml epidermal growth factor (EGF) recombinant human protein, 24 µg/mL adenine, and 0.1 mg/mL primocin. During culture from frozen stock vials, PDMR cells were cultured in the same medium containing 10 µM Y-27632 (see Table 3). The PDCs were cultured in complete DMEM/F12 media without 10 microM Y-27632 dihydrochloride for at least two passages prior to the screen. The pooled donor HUVEC and hMSC were cultured in endothelial cell growth medium 2 (PromoCell, Heidelberg, Germany, cat. C-22011) and mesenchymal stem cell growth medium 2 (PromoCell, cat. C-28009), respectively. For all experiments, HUVEC and hMSC were used at passages </=5.\nFor the pre-screen, cell seeding densities were determined from a titration spanning the range from 5,000 to 313 cells per well. The mct-spheroids including 60% malignant cells, 25% HUVEC and 15% MSC dispensed as a mixture into U-bottom Ultra-Low Attachment 384-well plates (Corning, NY)\nHigh-throughput Drug Combination Screening.\nPrior to their inoculation into 384-well plates, malignant cells, HUVEC, and hMSC were removed from T flasks using TrypLE express (Thermo Fisher Scientific, cat. 12605036) and harvested by centrifugation for 5 min at 233 x g. […]", "note": "“And” between values parts separate entries of the source, which are not always exact repeats. Equal entries are not always repeated."}
{"compound": "CC(C)CC(NC(=O)C(Cc1ccccc1)NC(=O)c1cnccn1)B(O)O", "note": "(configuration not stated) + CC(C)NCC(C(=O)N1CCN(c2ncnc3c2C(C)CC3O)CC1)c1ccc(Cl)cc1;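 also: spheroids exposed to drugs for 7 days before readout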;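 as to viability, T/C: 100% = DMSO vehicle control viability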", "values": [{"measurement": "IC50", "setting": "curve of first compound, second compound 0.3 µM", "value": 5.96, "unit": "nM"}, {"measurement": "IC50", "setting": "curve of first compound, second compound 0.949 µM", "value": 5.82, "unit": "nM"}, {"measurement": "IC50", "setting": "curve of first compound, second compound 3 µM", "value": 5.71, "unit": "nM"}, {"measurement": "IC50", "setting": "curve of first compound, second compound 9.49 µM", "value": 6.02, "unit": "nM"}, {"measurement": "IC50", "setting": "curve of first compound, second compound 30 µM", "value": 5.65, "unit": "nM"}, {"measurement": "viability, T/C", "setting": "second compound 0.3 µM, first compound 31.6 pM", "value": 94.4, "unit": "%"}, {"measurement": "viability, T/C", "setting": "second compound 0.3 µM, first compound 0.0001 µM", "value": 95.4, "unit": "%"}, {"measurement": "viability, T/C", "setting": "second compound 0.3 µM, first compound 0.000316 µM", "value": 94.5, "unit": "%"}, {"measurement": "viability, T/C", "setting": "second compound 0.3 µM, first compound 0.001 µM", "value": 96.1, "unit": "%"}, {"measurement": "viability, T/C", "setting": "second compound 0.3 µM, first compound 0.00316 µM", "value": 111, "unit": "%"}, {"measurement": "viability, T/C", "setting": "second compound 0.3 µM, first compound 0.01 µM", "value": 10.6, "unit": "%"}, {"measurement": "viability, T/C", "setting": "second compound 0.949 µM, first compound 31.6 pM", "value": 94.3, "unit": "%"}, {"measurement": "viability, T/C", "setting": "second compound 0.949 µM, first compound 0.0001 µM", "value": 84.2, "unit": "%"}, {"measurement": "viability, T/C", "setting": "second compound 0.949 µM, first compound 0.000316 µM", "value": 93.5, "unit": "%"}, {"measurement": "viability, T/C", "setting": "second compound 0.949 µM, first compound 0.001 µM", "value": 103, "unit": "%"}, {"measurement": "viability, T/C", "setting": "second compound 0.949 µM, first compound 0.00316 µM", "value": 109, "unit": "%"}, {"measurement": "viability, T/C", "setting": "second compound 0.949 µM, first compound 0.01 µM", "value": 8.36, "unit": "%"}, {"measurement": "viability, T/C", "setting": "second compound 3 µM, first compound 31.6 pM", "value": 90.6, "unit": "%"}, {"measurement": "viability, T/C", "setting": "second compound 3 µM, first compound 0.0001 µM", "value": 90.5, "unit": "%"}, {"measurement": "viability, T/C", "setting": "second compound 3 µM, first compound 0.000316 µM", "value": 93, "unit": "%"}, {"measurement": "viability, T/C", "setting": "second compound 3 µM, first compound 0.001 µM", "value": 93.7, "unit": "%"}, {"measurement": "viability, T/C", "setting": "second compound 3 µM, first compound 0.00316 µM", "value": 113, "unit": "%"}, {"measurement": "viability, T/C", "setting": "second compound 3 µM, first compound 0.01 µM", "value": 6.03, "unit": "%"}, {"measurement": "viability, T/C", "setting": "second compound 9.49 µM, first compound 31.6 pM", "value": 94.3, "unit": "%"}, {"measurement": "viability, T/C", "setting": "second compound 9.49 µM, first compound 0.0001 µM", "value": 89, "unit": "%"}, {"measurement": "viability, T/C", "setting": "second compound 9.49 µM, first compound 0.000316 µM", "value": 97.6, "unit": "%"}, {"measurement": "viability, T/C", "setting": "second compound 9.49 µM, first compound 0.001 µM", "value": 96.1, "unit": "%"}, {"measurement": "viability, T/C", "setting": "second compound 9.49 µM, first compound 0.00316 µM", "value": 104, "unit": "%"}, {"measurement": "viability, T/C", "setting": "second compound 9.49 µM, first compound 0.01 µM", "value": 13.5, "unit": "%"}, {"measurement": "viability, T/C", "setting": "second compound 30 µM, first compound 31.6 pM", "value": 93.8, "unit": "%"}, {"measurement": "viability, T/C", "setting": "second compound 30 µM, first compound 0.0001 µM", "value": 92.1, "unit": "%"}, {"measurement": "viability, T/C", "setting": "second compound 30 µM, first compound 0.000316 µM", "value": 89.9, "unit": "%"}, {"measurement": "viability, T/C", "setting": "second compound 30 µM, first compound 0.001 µM", "value": 98.5, "unit": "%"}, {"measurement": "viability, T/C", "setting": "second compound 30 µM, first compound 0.00316 µM", "value": 98.4, "unit": "%"}, {"measurement": "viability, T/C", "setting": "second compound 30 µM, first compound 0.01 µM", "value": 6.17, "unit": "%"}]}
{"compound": "Cc1nc(NC(=O)N2CCCC2C(N)=O)sc1-c1ccnc(C(C)(C)C(F)(F)F)c1", "note": "(configuration not stated)", "values": [{"measurement": "viability, T/C", "setting": "compound 0.0316 µM", "value": "82.3% and 93.5%"}, {"measurement": "viability, T/C", "setting": "compound 0.1 µM", "value": "87.3% and 82%"}, {"measurement": "viability, T/C", "setting": "compound 0.316 µM", "value": "73.3% and 81.9%"}, {"measurement": "viability, T/C", "setting": "compound 1 µM", "value": "68.2% and 77.4%"}, {"measurement": "viability, T/C", "setting": "compound 3.16 µM", "value": "72.5% and 67%"}, {"measurement": "viability, T/C", "setting": "compound 10 µM", "value": "58.3% and 54.9%"}, {"measurement": "IC50", "setting": "curve of compound", "value": "> 10000", "unit": "nM"}]}
